In patent publication US9771370B2, “Compounds for the inhibition of indoleamine-2,3-dioxygenase” (Merck Patent GmbH, priority 2014, dated 2017):

Target: Recombinant human IDO (Homo sapiens, UniProt P14902)
Assay: Bridge-IT tryptophan fluorescence assay of human IDO-1 inhibition
Assay type: biochemical
Conditions: recombinant human IDO 7.5 nM, L-tryptophan
Protocol: Measurement of human IDO-1 inhibition is performed in 384 well format using the Bridge-IT® tryptophan Fluorescence Assay (Mediomics, LLC, St. Louis, Mo., U.S.A.).
The reaction is initiated by the addition of L-Tryptophan (Sigma) at a final concentration of 100 μM in assay buffer. After 90 minutes of incubation at 37° C., the reaction is stopped by transferring 1 μl of the reaction mixture to 9 μl of Bridge-IT assay solution A. After 30 min of incubation at 30° C., the fluorescence intensity was measured at λex=485 nm and λem=665 nm using Perkin Elmer Envision® Multilabel Reader.
Measurement of human IDO-1 inhibition was performed in 384-well format using the BRIDGE-IT® tryptophan Fluorescence Assay (Mediomics, LLC, St. Louis, Mo., U.S.A.). […] After 30 minutes of pre-incubation at 25° C., the reaction was initiated by the addition of L-Tryptophan (Sigma) at a final concentration of 50 μM in assay buffer. After 60 minutes of incubation at 25° C., the reaction is stopped by transferring 1 μl of the reaction mixture to 9 μl of Bridge-IT assay solution A. After 30 min of incubation at 30° C., the fluorescence intensity was measured at λex=485 nm and λem=665 nm using Perkin Elmer ENVISION® Multilabel Reader.

Recombinant human IDO, sequence (P14902 whole entry): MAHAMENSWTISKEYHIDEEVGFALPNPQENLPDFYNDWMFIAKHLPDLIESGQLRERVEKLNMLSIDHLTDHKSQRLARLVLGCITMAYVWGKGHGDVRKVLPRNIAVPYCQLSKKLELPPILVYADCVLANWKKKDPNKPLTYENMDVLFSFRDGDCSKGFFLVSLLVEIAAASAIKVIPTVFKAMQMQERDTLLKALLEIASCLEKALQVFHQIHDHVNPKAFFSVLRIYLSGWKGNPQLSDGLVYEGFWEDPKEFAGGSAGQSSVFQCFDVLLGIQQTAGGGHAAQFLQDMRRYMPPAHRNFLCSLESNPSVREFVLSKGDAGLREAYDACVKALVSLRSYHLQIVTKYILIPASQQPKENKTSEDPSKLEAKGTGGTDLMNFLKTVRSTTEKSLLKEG

Row | Structure (SMILES) | IC50
1 | CC1(C)CCC(C(O)CC2c3nc(F)ccc3-c3cncn32)CC1 (single isomer, unassigned) [Compound 25a, 1-(4,4-dimethylcyclohexyl)-2-[10-fluoro-4,6,9-triazatricyclo[6.4.0.0^[2,6]]dodeca-1(8),2,4,9,11-pentaen-7-yl]ethan-1-ol] | > 1 µM
2 | CC1(C)CCC(C(O)CC2c3nc(F)ccc3-c3cncn32)CC1 (single isomer, unassigned) [Compound 25b, 1-(4,4-dimethylcyclohexyl)-2-[10-fluoro-4,6,9-triazatricyclo[6.4.0.0^[2,6]]dodeca-1(8),2,4,9,11-pentaen-7-yl]ethan-1-ol] | > 1 µM
3 | CC1(C)CCC(C(O)CC2c3nc(F)ccc3-c3cncn32)CC1 (single isomer, unassigned) [Compound 25c, 1-(4,4-dimethylcyclohexyl)-2-[10-fluoro-4,6,9-triazatricyclo[6.4.0.0^[2,6]]dodeca-1(8),2,4,9,11-pentaen-7-yl]ethan-1-ol] | > 1 µM
4 | CC1(C)CCC(C(O)CC2c3nc(F)ccc3-c3cncn32)CC1 (single isomer, unassigned) [Compound 25d, 1-(4,4-dimethylcyclohexyl)-2-[10-fluoro-4,6,9-triazatricyclo[6.4.0.0^[2,6]]dodeca-1(8),2,4,9,11-pentaen-7-yl]ethan-1-ol] | > 1 µM
5 | OC(CC1c2nc(F)ccc2-c2cncn21)C1CCC(F)(F)CC1 (single isomer, unassigned) [Compound 26a, 1-(4,4-difluorocyclohexyl)-2-[10-fluoro-4,6,9-triazatricyclo[6.4.0.0^[2,6]]dodeca-1(8),2,4,9,11-pentaen-7-yl]ethan-1-ol] | > 1 µM
6 | OC(CC1c2nc(F)ccc2-c2cncn21)C1CCC(F)(F)CC1 (single isomer, unassigned) [Compound 26b, 1-(4,4-difluorocyclohexyl)-2-[10-fluoro-4,6,9-triazatricyclo[6.4.0.0^[2,6]]dodeca-1(8),2,4,9,11-pentaen-7-yl]ethan-1-ol] | 0.1 to 1 µM
7 | OC1CCC(F)(CCC2c3cccc(F)c3-c3cncn32)CC1 (single isomer, unassigned) [Compound 35a, 4-fluoro-4-(2-(9-fluoro-5H-imidazo[5,1-a]isoindol-5-yl)ethyl)cyclohexanol] | > 1 µM
8 | OC1CCC(F)(CCC2c3cccc(F)c3-c3cncn32)CC1 (single isomer, unassigned) [Compound 35b, 4-fluoro-4-(2-(9-fluoro-5H-imidazo[5,1-a]isoindol-5-yl)ethyl)cyclohexanol] | 0.1 to 1 µM
9 | OC1CCC(F)(CCC2c3cccc(F)c3-c3cncn32)CC1 (single isomer, unassigned) [Compound 35c, 4-fluoro-4-(2-(9-fluoro-5H-imidazo[5,1-a]isoindol-5-yl)ethyl)cyclohexanol] | < 0.1 µM
10 | OC1CCC(F)(CCC2c3cccc(F)c3-c3cncn32)CC1 (single isomer, unassigned) [Compound 35d, 4-fluoro-4-(2-(9-fluoro-5H-imidazo[5,1-a]isoindol-5-yl)ethyl)cyclohexanol] | > 1 µM
11 | Fc1cccc2c1-c1cncn1C2CCC1(F)CCCCC1 (single isomer, unassigned) [Compound 36a, 9-fluoro-5-(2-(1-fluorocyclohexyl)ethyl)-5H-imidazo[5,1-a]isoindole] | > 1 µM
12 | Fc1ccc(F)c2c1-c1cncn1C2CCC1(F)CCCCC1 (single isomer, unassigned) [Compound 37a, 6,9-difluoro-5-(2-(1-fluorocyclohexyl)ethyl)-5H-imidazo[5,1-a]isoindole] | > 1 µM
13 | Fc1ccc(F)c2c1-c1cncn1C2CCC1(F)CCCCC1 (single isomer, unassigned) [Compound 37b, 6,9-difluoro-5-(2-(1-fluorocyclohexyl)ethyl)-5H-imidazo[5,1-a]isoindole] | 0.1 to 1 µM
14 | OC1CCC(F)(CCC2c3c(F)ccc(F)c3-c3cncn32)CC1 (single isomer, unassigned) [Compound 38a, 4-(2-(6,9-difluoro-5H-imidazo[5,1-a]isoindol-5-yl)ethyl)-4-fluorocyclohexanol] | > 1 µM
15 | OC1CCC(F)(CCC2c3c(F)ccc(F)c3-c3cncn32)CC1 (single isomer, unassigned) [Compound 38b, 4-(2-(6,9-difluoro-5H-imidazo[5,1-a]isoindol-5-yl)ethyl)-4-fluorocyclohexanol] | 0.1 to 1 µM
16 | OC1CCC(F)(CCC2c3c(F)ccc(F)c3-c3cncn32)CC1 (single isomer, unassigned) [Compound 38c, 4-(2-(6,9-difluoro-5H-imidazo[5,1-a]isoindol-5-yl)ethyl)-4-fluorocyclohexanol] | > 1 µM
17 | OC1CCC(F)(CCC2c3c(F)ccc(F)c3-c3cncn32)CC1 (single isomer, unassigned) [Compound 38d, 4-(2-(6,9-difluoro-5H-imidazo[5,1-a]isoindol-5-yl)ethyl)-4-fluorocyclohexanol] | < 0.1 µM
18 | COc1ccc2c(n1)C(CC(O)C1CCCCC1)n1cncc1-2 (single isomer, unassigned) [Compound 39a, 1-Cyclohexyl-2-[10-methoxy-4,6,9-triazatricyclo[6.4.0.0^[2,6]]dodeca-1(8),2,4,9,11-pentaen-7-yl]ethan-1-ol] | < 0.1 µM
19 | COc1ccc2c(n1)C(CC(O)C1CCCCC1)n1cncc1-2 (single isomer, unassigned) [Compound 39b, 1-Cyclohexyl-2-[10-methoxy-4,6,9-triazatricyclo[6.4.0.0^[2,6]]dodeca-1(8),2,4,9,11-pentaen-7-yl]ethan-1-ol] | 0.1 to 1 µM
20 | COc1ccc2c(n1)C(CC(O)C1CCC(C)(C)CC1)n1cncc1-2 (single isomer, unassigned) [Compound 40a, 1-(4,4-dimethylcyclohexyl)-2-[10-methoxy-4,6,9-triazatricyclo[6.4.0.0^[2,6]]dodeca-1(8),2,4,9,11-pentaen-7-yl]ethan-1-ol] | > 1 µM

Other lines, results leading:

Row | IC50 | Structure (SMILES)
21 | 0.1 to 1 µM | OC(CC1c2ncccc2-c2cncn21)C1CCC2(CC1)CC2 (single isomer, unassigned) [Compound 29a, 1-[spiro[2.5]octan-6-yl]-2-[4,6,9-triazatricyclo[6.4.0.0^[2,6]]dodeca-1(8),2,4,9,11-pentaen-7-yl]ethan-1-ol]
22 | > 1 µM | OC(CC1c2ncccc2-c2cncn21)C1CCC2(CC1)CC2 (single isomer, unassigned) [Compound 29b, 1-[spiro[2.5]octan-6-yl]-2-[4,6,9-triazatricyclo[6.4.0.0^[2,6]]dodeca-1(8),2,4,9,11-pentaen-7-yl]ethan-1-ol]
23 | 0.1 to 1 µM | OC(CC1c2ncccc2-c2cncn21)C1CCC2(CC1)CC2 (single isomer, unassigned) [Compound 29c, 1-[spiro[2.5]octan-6-yl]-2-[4,6,9-triazatricyclo[6.4.0.0^[2,6]]dodeca-1(8),2,4,9,11-pentaen-7-yl]ethan-1-ol]
24 | > 1 µM | OC(CC1c2ncccc2-c2cncn21)C1CCC2(CC1)CC2 (single isomer, unassigned) [Compound 29d, 1-[spiro[2.5]octan-6-yl]-2-[4,6,9-triazatricyclo[6.4.0.0^[2,6]]dodeca-1(8),2,4,9,11-pentaen-7-yl]ethan-1-ol]
25 | 0.1 to 1 µM | FC1(CCC2c3ncccc3-c3cncn32)CCC2(CC1)CC2 (single isomer, unassigned) [Compound 30a, 7-(2-{6-fluorospiro[2.5]octan-6-yl}ethyl)-4,6,9-triazatricyclo[6.4.0.0^[2,6]]dodeca-1(8),2,4,9,11-pentaene]
26 | > 1 µM | FC1(CCC2c3ncccc3-c3cncn32)CCC2(CC1)CC2 (single isomer, unassigned) [Compound 30b, 7-(2-{6-fluorospiro[2.5]octan-6-yl}ethyl)-4,6,9-triazatricyclo[6.4.0.0^[2,6]]dodeca-1(8),2,4,9,11-pentaene]
27 | > 1 µM | COc1ccc2c(n1)C(CCC1(F)CCCCC1)n1cncc1-2 (single isomer, unassigned) [Compound 32a, 7-[2-(1-fluorocyclohexyl)ethyl]-10-methoxy-4,6,9-triazatricyclo[6.4.0.0^[2,6]]dodeca-1(8),2,4,9,11-pentaene]
28 | 0.1 to 1 µM | COc1ccc2c(n1)C(CCC1(F)CCCCC1)n1cncc1-2 (single isomer, unassigned) [Compound 32b, 7-[2-(1-fluorocyclohexyl)ethyl]-10-methoxy-4,6,9-triazatricyclo[6.4.0.0^[2,6]]dodeca-1(8),2,4,9,11-pentaene]
29 | < 0.1 µM | COc1ccc2c(n1)C(CCC1(F)CCC(F)(F)CC1)n1cncc1-2 (single isomer, unassigned) [Compound 34a, 10-methoxy-7-[2-(1,4,4-trifluorocyclohexyl)ethyl]-4,6,9-triazatricyclo[6.4.0.0^[2,6]]dodeca-1(8),2,4,9,11-pentaene]
30 | > 1 µM | COc1ccc2c(n1)C(CCC1(F)CCC(F)(F)CC1)n1cncc1-2 (single isomer, unassigned) [Compound 34b, 10-methoxy-7-[2-(1,4,4-trifluorocyclohexyl)ethyl]-4,6,9-triazatricyclo[6.4.0.0^[2,6]]dodeca-1(8),2,4,9,11-pentaene]
31 | > 1 µM | Fc1cccc2c1-c1cncn1C2CCC1(F)CCCCC1 (single isomer, unassigned) [Compound 36b, 9-fluoro-5-(2-(1-fluorocyclohexyl)ethyl)-5H-imidazo[5,1-a]isoindole]
